Source: patent US20170182058A1, “TREATMENT OF RETT SYNDROME” (priority 2014, published 2017)
Read-outs that look alike come from different tables or passages of the source.

How the values were obtained:
[1] = in vitro permeability of a layer of CaCo-2 cells; type: in vitro ADME, human; conditions: human, Caco-2; test conc 50 μM, assay duration 2 hr; read-out: mean A->B Papp (apparent permeability)
plasma stability = type: in vitro ADME; conditions: based on animal and in-vitro studies
Mecp2 mice [2] = assay: locomotor activity, photobeam activity system; type: in vivo; conditions: 0.1-20 mg/kg
Method: Locomotor activity was monitored using methods described previously (Shaevitz et al. 2013 Genes Brain Behav. 12(7): 732-40. doi: […]). Mecp2 mutant males (between 1 and 3 months old) and females (between 3 and 6 months old) and age-matched controls were monitored for one-hour prior to and 12 hours after drug (or vehicle: 20% DMSO in saline) administration (one set of mice received IP injections and one set of mice received oral gavage) in doses that ranged from 0.1-20 mg/kg). Activity was measured across the 12-h dark cycle using a photobeam activity system (San Diego Instruments, San Diego, Calif., USA). Mice were placed individually into a cage (47×25×21 cm) inside a rectangular arena equipped with a 3×8 array of photobeams. The average number of ambulatory (two adjacent) and fine (repeated single) beam breaks per hour over the 12 h was compared. [N=2 mice/group at each dose and each administration route; for the vehicle controls, N=6 WT/group; N=6 Mecp2/group]. Data were analyzed using repeated measures analysis of variance.

mice [3] = assay: enhancement of learning in animals; type: in vivo; conditions: compared with galantamine
Text: Potentiation of nicotinic receptors facilitates release of a number of different neurotransmitters including dopamine, glutamate, and GABA.

CaCo-2 cells = assay: in vitro permeability of a layer of CaCo-2 cells; type: in vitro ADME, human; conditions: based on in vitro CaCo-2 permeability
Mecp2 mice [4] = assay: respiratory function, plethysmograph; type: in vivo; conditions: IP or gavage, 0.1-20 mg/kg
Method: Respiratory function was monitored in a plethysmograph (EMKA Technologies) for 30 minutes prior to and 1 hour after drug administration (one set of mice received IP injections and one set of mice received oral gavage). [N=2 mice/group at each dose and each administration route; for the vehicle controls, N=6 WT/group; N=6 Mecp2/group]. Data were analyzed using repeated measures analysis of variance.

nicotinic receptors = assay: neuronal electrophysiological activity via nicotinic receptors; conditions: galantamine positive allosteric modulatory site on nicotinic receptors
female Mecp2 mice = assay: novel object recognition (NOR) task; type: in vivo; conditions: Mecp2 females
Method: Cognitive function was assessed using the novel object recognition (NOR) task using methods previously described (Schaevitz et al. 2013). […] Novel object memory was assessed. during three sessions. This task relies on the innate tendency of a mouse to explore unfamiliar objects vs. familiar objects. Testing was performed in an open-field arena. Twenty-four hours prior to training, mice were habituated to the arena for 10 min. Ninety minutes before training, the mice were administered drug or vehicle (0.1, 0.5, 1.0, 2.5 and 5.0 mg/kg IP). During training, mice were given 10 min to explore two identical Lego Objects (A +A). Short- and long-term object memory were assessed in two subsequent sessions (24 h after the completion of training) during which mice were given 10 min to explore the familiar (A) or a novel (B or C) object. The duration of exploration (defined as the mouse's snout or forelimbs physically touching or approaching within 1 cm of an object) of familiar and novel objects was measured. The amount of time spent exploring the novel object over the total time exploring both novel and familiar objects in each session was used to measure object memory. [N==6/dose of 0.1, 0.5 and 1.0; N=1/dose of 2.5 and 5.0 mg/kg; for vehicle N=6 WT and N=6 Mecp2 mice.]
For the novel Objection recognition task data, we created a matrix of all wildtype and. Mecp2 females who were administered the vehicle and a second matrix comparing Mecp2 females with and without the drug (all doses combined).

cholinesterase = cholinesterase inhibitor (Han et al 1991); cited from earlier work
mice [5] = conditions: cited from earlier work; for adverse effects at high doses: 50-100 mg/kg
[6] = drug IP, all doses 0.1-5.0 mg/kg combined

Row | Structure (SMILES) | Papp A→B at 2 hr, 50 μM [1] [×10⁻⁶ cm/s] | stability in plasma (plasma stability) | safety and tolerability (Mecp2 mice [2]; Mecp2 mice of both sexes and controls, from locomotor and respiratory tests) | locomotor activity (Mecp2 mice [2]; Mecp2 mice of either sex, IP or gavage) | ambulatory and fine motor movements (Mecp2 mice [2]; all doses tested, IP or oral gavage) | enhancing learning (mice [3]) | predicted oral bioavailability (CaCo-2 cells) [%] | respiratory activity (Mecp2 mice [4]) | neuronal electrophysiological activity (nicotinic receptors) | NOR scores = or below 0.5 (share of mice that did not learn) (female Mecp2 mice; [6]) [%] | NOR scores above 0.5 (share of mice that learned) (female Mecp2 mice; [6]) [%] | NOR task performance versus vehicle (female Mecp2 mice; Chi square p = 0.0321) | IC50 (cholinesterase) [nM] | adverse effects at high doses (mice [5]; listed as Galantamine n-butylcarbamate) | adverse effects at high doses (mice [5]; listed as n-butylcarbamate) | lethality (no lethality up to dose) (mice [5]) [mg/kg]
1 | CNC(=C[N+](=O)[O-])NCCSCc1ccc(CN(C)C)o1 [Ranitidine, reference compound] | 1.1 |  |  |  |  |  |  |  |  |  |  |  |  |  |  | 
2 | CCCCNC(=O)O[C@H]1C=C[C@@]23CCN(C)Cc4ccc(OC)c(c42)O[C@H]3C1 [galantamine n-butylcarbamate] | 20.8 | stable in plasma | safe and well tolerated | did not impair locomotor activity | not significant altered | effective in enhancing learning at lower doses than galantamine | 80 | did not affect respiratory activity | enhances neuronal electrophysiological activity | 65 | 35 | improves memory for a novel object and cognitive performance | 1090 | affects cardiac and motor functions | wobbly and off-balance with rapid heart rate still present at 4 hours, but were recovered at 24 hours | > 100
3 | CC(=O)CC(c1ccccc1)c1c(O)c2ccccc2oc1=O (stereo not drawn) [Warfarin, reference compound] | 34.7 |  |  |  |  |  |  |  |  |  |  |  |  |  |  | 
